Measured values: US20170311603A1 (priority 2014, published 2017)

How the values were obtained:
[1] = system: B. cinerea B0510; assay: Mycelial growth of B. cinerea on supplemented PDA medium (Example 2); type: cell-based, Botrytis cinerea; settings: after 8 days, versus control (100%)
[2] = system: N. parvum isolate Bourgogne S-116; assay: Mycelial growth of N. parvum on supplemented PDA medium (Example 1); type: cell-based, Neofusicoccum parvum; settings: after 4 days, versus control (100%)
[3] = system: Calli of V. vinifera cv. Chardonnay; assay: Phytotoxicity on grapevine cell clusters (calli) (Example 4); type: cell-based, V. vinifera L. cv. Chardonnay; settings: for appearance and color of the calli: MPM1 medium supplemented with 5 or 10 mM
Protocol: Calli (or undifferentiated cell clusters) of V. vinifera cv. Chardonnay are obtained from anthers as described in Mauro et al. (1986) and in Bertsch et al. (2005).
All the calli are inoculated on fresh solid MPM1 medium (Perrin et al. 2004) every 3 weeks and incubated at 25±0.5° C. in the dark with a relative humidity of 70±10%.
This experiment was repeated three times. For each condition, 15 white-yellow calli, with a diameter of 10±2 mm, were used.
Calli growth in each condition tested is evaluated by weighing each day for 5 days. Duncan's statistical test (with p≦0.05) was applied to the means and standard deviations of the results thus obtained. In addition to weighing, we visually evaluate the appearance and color of the calli according to their culture medium for 2 months.

[4] = system: N. parvum isolate Bourgogne S-116; set-up: species or system V. vinifera L. cv. Chardonnay; settings: in vivo

| SMILES | inhibition of the growth of the fungus on the culture medium [1] | inhibition of the growth of the fungus on the culture medium [2] | appearance and color of the calli [3] | reduction in the surface area of the necrotic lesions [4] [%] | growth of the calli (weighing) ([3]; supplemented MPM1 medium, 5 days of culture) | inhibition of the development of necrosis on the inoculated internodes [4] |
| --- | --- | --- | --- | --- | --- | --- |
| [O-2].[O-2].[O-2].[Sb+3].[Sb+3] [antimony oxide] | do not significantly inhibit the growth of the fungus | do not significantly inhibit the growth of the fungus | – | – | – | – |
| O=C([O-])CC(O)(CC(=O)[O-])C(=O)[O-].[Bi+3] [bismuth citrate] | do not significantly inhibit the growth of the fungus | do not significantly inhibit the growth of the fungus | – | – | – | – |
| [Bi+3].[Bi+3].[O-2].[O-2].[O-2] [bismuth oxide] | do not significantly inhibit the growth of the fungus | do not significantly inhibit the growth of the fungus | no change | 5 | – | – |
| O=C1[O][Bi]([OH])[O]c2ccccc21 [bismuth subsalicylate] | – | – | light grayish coloring at the periphery of the calli but no necrosis | – | no impact in terms of growth, multiplication or necrotic appearance | – |
| O=C(O)c1ccccc1O [salicylic acid] | – | – | light grayish coloring at the periphery of the calli but no necrosis | – | – | does not significantly inhibit the development of necrosis |
